Test results as given in patent US9562044B2, “2-acylaminothiazole derivative or salt thereof” (ASTELLAS PHARMA INC., priority 2013, dated 2017).
Where a name gives a salt, the structure may show the parent alone.

Each compound was assayed against T1, human c-Mpl receptor (Homo sapiens, UniProt P40238) (assay: Human c-Mpl-introduced Ba/F3 cell proliferative activity). Conditions: concentration showing 30% proliferation; 100% = positive control at 1 μM.
T1 construct: expressed in transfected cells
T1 sequence (P40238 26-635): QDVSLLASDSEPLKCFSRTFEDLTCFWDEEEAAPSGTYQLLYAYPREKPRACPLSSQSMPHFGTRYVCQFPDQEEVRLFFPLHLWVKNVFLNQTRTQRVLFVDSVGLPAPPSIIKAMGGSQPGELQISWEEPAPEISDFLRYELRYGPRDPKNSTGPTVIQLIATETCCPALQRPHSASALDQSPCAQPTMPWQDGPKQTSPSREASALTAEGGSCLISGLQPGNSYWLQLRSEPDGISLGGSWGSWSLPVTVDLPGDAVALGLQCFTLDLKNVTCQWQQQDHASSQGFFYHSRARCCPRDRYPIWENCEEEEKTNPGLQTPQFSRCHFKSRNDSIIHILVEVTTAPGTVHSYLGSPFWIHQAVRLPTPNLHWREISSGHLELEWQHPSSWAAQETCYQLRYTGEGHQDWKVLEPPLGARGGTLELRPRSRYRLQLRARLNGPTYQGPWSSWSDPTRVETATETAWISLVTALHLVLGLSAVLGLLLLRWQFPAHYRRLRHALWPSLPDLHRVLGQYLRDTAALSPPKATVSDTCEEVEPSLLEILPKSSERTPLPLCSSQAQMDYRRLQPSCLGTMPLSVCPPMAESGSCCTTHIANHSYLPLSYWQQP
Type: cell-based
Description: Evaluation of Human c-Mpl-Introduced Ba/F3 Cell Proliferative Activity
The human c-Mpl-introduced Ba/F3 cell proliferative activity was measured by the following method.
As a positive control, 1-(5-{[4-(4-chloro-2-thienyl)-5-{[(2R)-2-methylpyrrolidin-1-yl]methyl}-1,3-thiazol-2-yl]carbamoyl}-3-fluoropyridin-2-yl)piperidine-4-carboxylic acid hydrochloride, which is disclosed as Example 315 in Patent Document 1 and represented by the formula A1, was used. It is known that the compound has a good human c-Mpl-introduced Ba/F3 cell proliferative activity as disclosed in Table 1 of Patent Document 1.
a) Construction of Human c-Mpl Receptor Expression Vector
A human c-mpl receptor gene (GenBank Accession No. M90102.1) was introduced into an expression vector pEF-BOS (Nucleic Acids Res. 18, 5322, 1990).
b) Construction of Cell Stably Expressing Human c-Mpl Receptor
A human c-Mpl receptor expression vector was introduced into a Ba/F3 cell (RIKEN BRC: RCB0805). For the introduction, an electroporation method was used. pEF-BOS-c-mpl (10 μg), pSV2bsr (1 μg, Kaken Pharmaceutical Co., Ltd.) and 1×10^7 Ba/F3 cells were put into a cuvette having a gap width of 0.4 cm, and electroporated under the conditions of 1.5 kV (25 μF) by a Gene Pulser (registered trademark) (BioRad). The cells were cultured in an RPMI-1640 culture medium containing 0.5% WEHI conditioned media (BD Biosciences) and 10% fetal bovine serum for 3 days, and then cultured in an RPMI-1640 culture medium, to which 10 μg/mL blasticidin had been further added, for 30 days to acquire a drug-resistant clone.
c) Measurement of Cell Proliferative Activity
The cells obtained in b) above was cultured in an RPMI-1640 culture medium containing 0.5% WEHI conditioned media, 10% fetal bovine serum, and used. On the day before the experiment, test substances (final concentration of 100 nM to 10 μM) which had been dissolved in a culture medium for assay (RPMI-1640 culture medium containing 10% fetal bovine serum) were added to a 384-well plate (Lot No. 781185, Greiner Bio-One). The cells in the culture medium that had been replaced with a culture medium for assay were dispensed into a 384-well plate, to which the test substances had been added in advance, to 1×10^4 cells/well, and cultured at 37° C. and 5% CO2 overnight. On the experiment day, a solution of a Cell Counting Kit (Dojindo Laboratories) was added to each well of the 384-well plate and cultured at 37° C. and 5% CO2 for about 5 hours. Thereafter, the absorbance (absorption wavelength of 450 nm) of each well was measured using Safire^2™ (TECAN) and used as the index of the number of cells. Further, as a negative control, a well in which the test substance had been not added was prepared.
The absorbance of the well without the test substance was set to 0%, and the absorbance in the case where the positive control was added at a final concentration of 1 μM was set to 100%. From the absorbance in the case where the test substance had been added, a cell proliferation rate (%) was calculated. From the obtained results, the test substance concentration showing 30% proliferation was calculated as an EC30 value by a logistic regression method.

Row | SMILES | Test Example 2 EC30
1 | C[C@@H]1CCCN1Cc1sc(NC(=O)c2cnc(N3CCC(C(=O)O)CC3)cn2)nc1-c1cc(Cl)cs1 [Example 4, 1-(5-{[4-(4-chloro-2-thienyl)-5-{[(2R)-2-methylpyrrolidin-1-yl]methyl}-1,3-thiazol-2-yl]carbamoyl}pyrazin-2-yl)piperidine-4-carboxylic acid dihydrochloride] | 0.35 µM
2 | CC[C@@H]1CCCN1Cc1sc(NC(=O)c2cnc(N3CCC(C(=O)O)CC3)cn2)nc1-c1cc(F)cc(C(F)(F)F)c1 [Example 115] | >10 µM
3 | CC[C@@H]1CCCN1Cc1sc(NC(=O)c2cnc(N3CCC(C(=O)O)CC3)cn2)nc1-c1ccc(OC)c(C(F)(F)F)c1 [Example 156] | >10 µM
